These results are taken from US20200002323A1, “COMPOUNDS” (GLAXOSMITHKLINE INTELLECTUAL PROPERTY DEVELOPMENT LIMITED, priority 2017, published 2020).

T1 sequence (Q5S007 whole entry): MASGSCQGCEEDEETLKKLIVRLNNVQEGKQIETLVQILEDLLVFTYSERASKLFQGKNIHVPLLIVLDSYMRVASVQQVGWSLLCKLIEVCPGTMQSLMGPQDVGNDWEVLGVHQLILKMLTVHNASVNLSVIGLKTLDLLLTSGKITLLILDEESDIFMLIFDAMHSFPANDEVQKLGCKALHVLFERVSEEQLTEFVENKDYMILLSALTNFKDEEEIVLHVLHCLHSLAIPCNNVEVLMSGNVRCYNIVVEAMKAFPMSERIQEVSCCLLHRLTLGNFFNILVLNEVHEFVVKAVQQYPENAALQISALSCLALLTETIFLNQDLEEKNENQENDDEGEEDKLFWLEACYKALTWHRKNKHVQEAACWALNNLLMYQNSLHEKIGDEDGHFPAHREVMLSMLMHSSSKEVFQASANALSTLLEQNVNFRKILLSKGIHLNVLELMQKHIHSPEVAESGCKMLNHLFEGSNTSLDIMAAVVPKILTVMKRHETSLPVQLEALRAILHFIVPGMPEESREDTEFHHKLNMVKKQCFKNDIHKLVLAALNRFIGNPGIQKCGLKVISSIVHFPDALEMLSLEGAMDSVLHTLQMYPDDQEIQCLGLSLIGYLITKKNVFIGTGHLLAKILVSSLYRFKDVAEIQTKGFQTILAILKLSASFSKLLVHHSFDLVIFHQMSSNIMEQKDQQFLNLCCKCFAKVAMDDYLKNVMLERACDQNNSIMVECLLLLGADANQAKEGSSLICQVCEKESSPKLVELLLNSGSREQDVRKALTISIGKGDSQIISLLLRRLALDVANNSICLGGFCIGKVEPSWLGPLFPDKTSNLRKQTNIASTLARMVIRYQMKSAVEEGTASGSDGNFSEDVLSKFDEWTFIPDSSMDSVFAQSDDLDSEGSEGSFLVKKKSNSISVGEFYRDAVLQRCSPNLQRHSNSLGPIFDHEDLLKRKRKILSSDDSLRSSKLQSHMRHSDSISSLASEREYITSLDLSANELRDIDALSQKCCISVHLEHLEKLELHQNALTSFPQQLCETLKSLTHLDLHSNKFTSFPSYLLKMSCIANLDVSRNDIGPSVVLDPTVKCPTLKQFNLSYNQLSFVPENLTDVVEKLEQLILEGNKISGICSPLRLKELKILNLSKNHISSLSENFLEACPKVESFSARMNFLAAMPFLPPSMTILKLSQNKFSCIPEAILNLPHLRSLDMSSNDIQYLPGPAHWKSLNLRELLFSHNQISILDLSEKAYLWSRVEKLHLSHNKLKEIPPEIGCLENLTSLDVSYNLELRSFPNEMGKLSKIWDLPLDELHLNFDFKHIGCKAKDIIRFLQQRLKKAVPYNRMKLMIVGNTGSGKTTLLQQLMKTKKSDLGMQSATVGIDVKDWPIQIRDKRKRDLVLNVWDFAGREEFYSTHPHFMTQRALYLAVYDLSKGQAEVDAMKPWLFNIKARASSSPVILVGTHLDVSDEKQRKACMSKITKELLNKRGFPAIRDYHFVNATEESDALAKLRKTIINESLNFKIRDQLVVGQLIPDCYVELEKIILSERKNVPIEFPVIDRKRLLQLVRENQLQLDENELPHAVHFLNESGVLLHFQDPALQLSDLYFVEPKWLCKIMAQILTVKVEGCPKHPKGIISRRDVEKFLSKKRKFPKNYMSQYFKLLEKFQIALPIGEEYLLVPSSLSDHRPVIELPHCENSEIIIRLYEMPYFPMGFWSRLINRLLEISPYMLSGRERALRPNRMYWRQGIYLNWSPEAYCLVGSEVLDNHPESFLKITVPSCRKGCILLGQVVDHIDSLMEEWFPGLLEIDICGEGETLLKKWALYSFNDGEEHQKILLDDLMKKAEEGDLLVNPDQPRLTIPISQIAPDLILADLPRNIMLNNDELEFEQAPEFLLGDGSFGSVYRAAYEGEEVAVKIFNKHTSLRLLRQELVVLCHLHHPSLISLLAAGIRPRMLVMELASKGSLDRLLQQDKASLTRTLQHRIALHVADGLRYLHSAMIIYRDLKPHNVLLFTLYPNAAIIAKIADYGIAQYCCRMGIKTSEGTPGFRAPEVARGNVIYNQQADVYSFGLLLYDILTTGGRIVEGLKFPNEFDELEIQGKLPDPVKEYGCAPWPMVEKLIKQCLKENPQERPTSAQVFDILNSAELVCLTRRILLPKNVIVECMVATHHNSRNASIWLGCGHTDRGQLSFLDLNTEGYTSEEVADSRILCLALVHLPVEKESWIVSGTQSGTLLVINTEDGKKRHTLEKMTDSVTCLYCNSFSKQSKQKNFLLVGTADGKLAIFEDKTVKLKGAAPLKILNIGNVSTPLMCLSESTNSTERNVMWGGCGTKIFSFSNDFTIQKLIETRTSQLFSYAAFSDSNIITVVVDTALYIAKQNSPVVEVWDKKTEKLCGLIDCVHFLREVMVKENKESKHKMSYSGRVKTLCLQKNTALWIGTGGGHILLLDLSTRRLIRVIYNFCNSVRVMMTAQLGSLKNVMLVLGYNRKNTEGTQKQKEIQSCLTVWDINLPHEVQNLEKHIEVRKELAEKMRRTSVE

This experiment addresses T1, recombinant full length LRRK2 protein over-expressed in SH-SY5Y cells (Homo sapiens, UniProt Q5S007).
T1 construct: engineered to over-express recombinant full length LRRK2 protein; host or cells: SH-SY5Y human neuroblastoma cells transduced with BacMam LRRK2 virus
In words: Recombinant cellular LRRK2 AlphaScreen assay (LRRK2 Ser935 phosphorylation). The class given is cell-based. Conditions: human neuroblastoma SH-SY5Y cells over-expressing recombinant full length LRRK2, 60 minutes compound incubation, read-out: pIC50 in the recombinant cellular LRRK2 AlphaScreen assay (converted). From the text: b. Recombinant Cellular LRRK2 AlphaScreen Assay
To determine the activity of compounds against LRRK2 kinase activity in cells, the observed LRRK2 kinase-dependent modulation of LRRK2 Ser 935 phosphorylation (Dzamko et al., 2010, Biochem. J. 430: 405-413) was utilized to develop a quantitative 384 well plate-based immunoassay of LRRK2 Ser935 phosphorylation in the human neuroblastoma cell line SH-SY5Y, engineered to over-express recombinant full length LRRK2 protein.
A BacMam virus expressing full length recombinant LRRK2 was purchased from Invitrogen and amplified by inoculation of SF-9 cells at MOI 0.3 for 4-5 days in Sf-900 III SFM medium supplemented with 3% fetal bovine serum. Infected cell cultures were then centrifuged at 2000 g for 20 minutes, viral supernatant titer determined by anti-gp64 plaque assay and stored at 4° C.
Affinity-purified anti-phospho LRRK2 Ser935 sheep polyclonal antibody (Dzamko et al., 2010, Biochem. J. 430: 405-413) was biotinylated by standard methods (PerkinElmer). Anti-LRRK2 rabbit polyclonal antibody was purchased from Novus Biologicals. AlphaScreen Protein A IgG Kit (including acceptor and donor beads) was purchased from Perkin Elmer. […]
Serial dilutions of test compounds were prepared in Opti-MEM reduced serum media (Invitrogen) and 5.6 ul transferred from compound plate to cell assay plate to achieve a top final assay concentration of 10 uM. […] 10 ul of antibody/acceptor bead mix [(1/1000 biotinylated-pS935 LRRK2 antibody, 1/1000 total-LRRK2 antibody, 1/100 Acceptor beads in AlphaScreen detection buffer (25 mM Hepes (pH 7.4), 0.5% Triton X-100, 1 mg/ml Dextran 500 and 0.1% BSA)] was then added to each well and plates incubated for 2 hours at ambient temperature in the dark. 10 μl of donor beads solution (1/33.3 donor beads in AlphaScreen detection buffer) was then added to each well. Following incubation for a further 2 hours at ambient temperature in the dark, plates were read on an EnVision™ plate reader at emission 520-620 nm with excitation 680 nm. […]
With `Cc1nc(N2CCO[C@@H](CO)C2)cc(-n2ncc3cc(C)c(C4CCN(CC(C)O)CC4F)cc32)n1` (single isomer, unassigned) [Example E29], the IC50 was 6.31 nM.

Take `COc1nc(N2CC(O)C2)cc(-n2ncc3cc(C)c(C4CCN(CCS(C)(=O)=O)CC4)cc32)n1` [Example E42, 1-(2-methoxy-6-(5-methyl-6-(1-(2-(methylsulfonyl)ethyl)piperidin-4-yl)-1H-indazol-1-yl)pyrimidin-4-yl)azetidin-3-ol]: the IC50 was 2 nM.

Consider `COc1nc(N2CCOCC2)cc(-n2ncc3cc(C)c(C4CCN(CCO)CC4F)cc32)n1` (single isomer, unassigned) [Example E1, 2-(3-fluoro-4-(1-(2-methoxy-6-morpholinopyrimidin-4-yl)-5-methyl-1H-indazol-6-yl)piperidin-1-yl)ethanol], for which the IC50 is 5.01 nM.
